From ChEMBL document CHEMBL3797111, “Substituted Indazoles as Nav1.7 Blockers for the Treatment of Pain” (J Med Chem, 2016)

Tests used:
Type in all cases: ADME, organism-based
Settings in all cases: in vivo
[1] = Bioavailability in Sprague-Dawley rat by HPLC-MS/MS analysis
Plasma [2] = assay: Plasma concentration in monoiodoacetate-induced osteoarthritis rat model at 3 mg/kg, po
Plasma [3] = assay: Plasma concentration in monoiodoacetate-induced osteoarthritis rat model at 10 mg/kg, po
Plasma [4] = assay: Plasma concentration in monoiodoacetate-induced osteoarthritis rat model at 30 mg/kg, po

## O=C(CN1CCN(c2cccc3c2cnn3-c2ccccc2F)C1=O)N1CCCC1
[1]
  bioavailability: 94%

## Fc1ccc2c(c1)c(OCCn1ccnc1)nn2-c1ccccc1F
[1]
  bioavailability: 28%

## O=C1CN(c2cccc3c2cnn3-c2ccccc2F)CCN1CC(=O)N1CC[C@H](F)C1
[1]
  bioavailability: 84%

## O=C1NCCN1CCOc1nn(-c2ccc(F)cc2)c2ccc(F)cc12
[1]
  bioavailability: 54%

## O=C(CN1CCN(c2cccc3c2cnn3-c2ccccc2F)C1=O)N1CC[C@H](F)C1
Plasma [2]
  Cp: 2.7 µg/mL
Plasma [3]
  Cp: 6.8 µg/mL
Plasma [4]
  Cp: 10.5 µg/mL
[1]
  bioavailability: 83%

## CC(Oc1nn(-c2ccccc2F)c2ccc(F)cc12)C(=O)N1CCOCC1 (configuration not stated)
[1]
  bioavailability: 27%

## O=C1NCCN1CCOc1nn(-c2ccccc2F)c2ccc(F)cc12
Plasma [2]
  Cp: 0.05 µg/mL
Plasma [3]
  Cp: 0.38 µg/mL
Plasma [4]
  Cp: 1.05 µg/mL
[1]
  bioavailability: 17%

## O=C(COc1nn(-c2ccccc2F)c2ccc(F)cc12)N1CCOCC1
[1]
  bioavailability: 22%

## CC(C)CC(=O)CN1CCN(c2cccc3c2cnn3-c2ccccc2F)C1=O
[1]
  bioavailability: 82%

## O=c1[nH]ccn1CCOc1nn(-c2ccccc2F)c2ccc(F)cc12
[1]
  bioavailability: 35%

## O=C1NCCN1CCOc1nn(-c2ccc(F)cc2F)c2ccc(F)cc12
[1]
  bioavailability: 71%
